Assay results as given in ChEMBL document CHEMBL1201861, “Genomics of Drug Sensitity in Cancer screening data, Wellcome Trust Sanger Institute”.

Experiments:
Assay in all cases: cells
Details in all cases: Homo sapiens
[1] = tested on: NCI-H2452; type: functional, cell-based;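 also: growth inhibition of NCI-H2452 cells, read out with a cell viability assay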
Description: SANGER: Inhibition of human NCI-H2452 cell growth in a cell viability assay.

[2] = tested on: 769-P; type: functional, cell-based
Description: SANGER: Inhibition of human 769-P cell growth in a cell viability assay.

[3] = tested on: FaDu; type: functional, cell-based;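 also: cell viability readout of growth inhibition in FaDu cells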
Description: SANGER: Inhibition of human FADU cell growth in a cell viability assay.

[4] = tested on: MDA-MB-415; type: functional, cell-based
[5] = tested on: SW1088; type: functional, cell-based;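 also: growth inhibition of human SW1088 cells, read out by a cell viability assay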
Description: SANGER: Inhibition of human SW1088 cell growth in a cell viability assay.

[6] = tested on: ABC-1; type: functional, cell-based;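 also: growth inhibition of human ABC-1 cells, read out by a cell viability assay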
Description: SANGER: Inhibition of human ABC-1 cell growth in a cell viability assay.

[7] = tested on: HLE; type: functional, cell-based;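 also: growth inhibition of human HLE cells, read out by a cell viability assay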
Description: SANGER: Inhibition of human HLE cell growth in a cell viability assay.

[8] = tested on: LoVo; type: functional, cell-based;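 also: growth inhibition of human LoVo cells, read out with a cell viability assay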
Description: SANGER: Inhibition of human LoVo cell growth in a cell viability assay.

[9] = tested on: BXPC-3; type: functional, cell-based;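 also: growth inhibition of human BxPC-3 cells, read out by a cell viability assay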
Description: SANGER: Inhibition of human BxPC-3 cell growth in a cell viability assay.

[10] = tested on: D-392MG; type: functional, cell-based
[11] = tested on: 786-0; type: functional, cell-based
Description: SANGER: Inhibition of human 786-0 cell growth in a cell viability assay.

[12] = tested on: CAPAN-1; type: functional, cell-based;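 also: growth suppression of CAPAN-1 cells, read out by a cell viability assay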
Description: SANGER: Inhibition of human CAPAN-1 cell growth in a cell viability assay.

[13] = tested on: KOSC-2; type: functional, cell-based;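 also: growth inhibition of KOSC-2 cells, read out by a cell viability assay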
Description: SANGER: Inhibition of human KOSC-2 cell growth in a cell viability assay.

[14] = tested on: 5637; type: functional, cell-based
Description: SANGER: Inhibition of human 5637 cell growth in a cell viability assay.

[15] = tested on: KYSE-520 cell line; type: functional, cell-based;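 also: growth inhibition of human KYSE-520 cells, read out with a viability assay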
Description: SANGER: Inhibition of human KYSE-520 cell growth in a cell viability assay.

[16] = tested on: LN-405; type: functional, cell-based
Description: SANGER: Inhibition of human LN-405 cell growth in a cell viability assay.

[17] = tested on: SW1463; type: functional, cell-based;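 also: growth inhibition of SW1463 cells, determined with a cell viability assay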
Description: SANGER: Inhibition of human SW1463 cell growth in a cell viability assay.

[18] = tested on: CAL-27; type: functional, cell-based;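 also: Viability-based readout, IC50 reflecting inhibition of CAL-27 cell growth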
Description: SANGER: Inhibition of human CAL-27 cell growth in a cell viability assay.

[19] = tested on: A-427; type: functional, cell-based;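 also: growth inhibition of human A-427 cells, read out by a cell viability assay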
Description: SANGER: Inhibition of human A427 cell growth in a cell viability assay.

[20] = tested on: NCI-H1792; type: functional, cell-based;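 also: growth inhibition of human NCI-H1792 cells, read out as cell viability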
Description: SANGER: Inhibition of human NCI-H1792 cell growth in a cell viability assay.

[21] = tested on: SN12C; type: functional, cell-based;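 also: growth inhibition of human SN12C cells, measured by a cell viability assay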
Description: SANGER: Inhibition of human SN12C cell growth in a cell viability assay.

[22] = tested on: NCI-H1623; type: functional, cell-based;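 also: cell viability assay used as the read-out for growth inhibition of NCI-H1623 cells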
Description: SANGER: Inhibition of human NCI-H1623 cell growth in a cell viability assay.

[23] = tested on: RT-112; type: functional, cell-based
Description: SANGER: Inhibition of human RT-112 cell growth in a cell viability assay.

[24] = tested on: Daoy; type: functional, cell-based;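 also: daoy cell growth inhibition, read out as cell viability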
Description: SANGER: Inhibition of human Daoy cell growth in a cell viability assay.

[25] = tested on: NCI-H2087; type: functional, cell-based;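 also: growth inhibition determined with a cell viability readout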
Description: SANGER: Inhibition of human NCI-H2087 cell growth in a cell viability assay.

[26] = tested on: UMC-11; type: functional, cell-based;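 also: growth inhibition of UMC-11 cells, read out with a cell viability assay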
Description: SANGER: Inhibition of human UMC-11 cell growth in a cell viability assay.

[27] = tested on: PANC-03-27; type: functional, cell-based
Description: SANGER: Inhibition of human PANC-03-27 cell growth in a cell viability assay.

[28] = tested on: 639-V; type: functional, cell-based;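 also: growth inhibition of 639-V cells, read out with a cell viability assay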
Description: SANGER: Inhibition of human 639-V cell growth in a cell viability assay.

[29] = tested on: C-33-A; type: functional, cell-based;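 also: cell viability assay measuring growth inhibition of C-33-A cells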
Description: SANGER: Inhibition of human C-33-A cell growth in a cell viability assay.

[30] = tested on: HT1197; type: functional, cell-based, HT-1197
Description: SANGER: Inhibition of human HT-1197 cell growth in a cell viability assay.

[31] = tested on: HCC1569; type: functional, cell-based;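 also: growth inhibition of human HCC1569 cells, read out with a cell viability assay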
Description: SANGER: Inhibition of human HCC1569 cell growth in a cell viability assay.

[32] = tested on: WM-115; type: functional, cell-based
Description: SANGER: Inhibition of human WM-115 cell growth in a cell viability assay.

[33] = tested on: SW948; type: functional, cell-based;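 also: growth inhibition of SW948 cells, read out with a cell viability assay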
Description: SANGER: Inhibition of human SW948 cell growth in a cell viability assay.

[34] = tested on: DMS-273; type: functional, cell-based
Description: SANGER: Inhibition of human DMS-273 cell growth in a cell viability assay.

[35] = tested on: HGC-27; type: functional, cell-based;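 also: growth inhibition of human HGC-27 cells, read out in a cell viability assay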
Description: SANGER: Inhibition of human HGC-27 cell growth in a cell viability assay.

[36] = tested on: SJRH30; type: functional, cell-based;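 also: growth inhibition of human SJRH30 cells, read out with a cell viability assay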
Description: SANGER: Inhibition of human SJRH30 cell growth in a cell viability assay.

[37] = tested on: GAMG; type: functional, cell-based;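 also: cell growth inhibition measured by a viability assay in the GAMG human cell line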
Description: SANGER: Inhibition of human GAMG cell growth in a cell viability assay.

[38] = tested on: EFO-27; type: functional, cell-based;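 also: growth inhibition of EFO-27 cells, read out with a cell viability assay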
Description: SANGER: Inhibition of human EFO-27 cell growth in a cell viability assay.

[39] = tested on: T84; type: functional, cell-based;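 also: growth inhibition measured with a cell viability readout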
Description: SANGER: Inhibition of human T84 cell growth in a cell viability assay.

[40] = tested on: SK-N-AS; type: functional, cell-based;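 also: growth inhibition of human SK-N-AS cells, measured with a cell viability assay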
Description: SANGER: Inhibition of human SK-N-AS cell growth in a cell viability assay.

[41] = tested on: CaR-1; type: functional, cell-based;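 also: growth inhibition of human CaR-1 cancer cells, read out with a cell viability assay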
Description: SANGER: Inhibition of human CaR-1 cell growth in a cell viability assay.

[42] = tested on: CAL-62; type: functional, cell-based;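 also: growth inhibition of CAL-62 cells, read out with a cell viability assay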
Description: SANGER: Inhibition of human CAL-62 cell growth in a cell viability assay.

[43] = tested on: NCI-H1793; type: functional, cell-based;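 also: cell growth inhibition, read out by a cell viability assay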
Description: SANGER: Inhibition of human NCI-H1793 cell growth in a cell viability assay.

[44] = tested on: 8505C; type: functional, cell-based
Description: SANGER: Inhibition of human 8505C cell growth in a cell viability assay.

[45] = tested on: SW837; type: functional, cell-based;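 also: growth inhibition of SW837 cells, determined with a cell viability assay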
Description: SANGER: Inhibition of human SW837 cell growth in a cell viability assay.

[46] = tested on: SW13; type: functional, cell-based;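 also: IC50 is inhibition of SW13 cell growth, read out with a cell viability assay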
Description: SANGER: Inhibition of human SW13 cell growth in a cell viability assay.

[47] = tested on: Kasumi 1; type: functional, cell-based;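 also: growth inhibition of human Kasumi-1 cells, read out by a cell viability assay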
Description: SANGER: Inhibition of human KASUMI-1 cell growth in a cell viability assay.

Measured: IC50

CC(=O)c1c(C)c2cnc(Nc3ccc(N4CCNCC4)cn3)nc2n(C2CCCC2)c1=O [PALBOCICLIB]
2.15 µM: [11]
0.321 µM: [23]
0.565 µM: [35]
3.47 µM: [5]
2.59 µM: [37]
0.467 µM: [13]
0.388 µM: [40]
1.01 µM: [21]
1.61 µM: [42]
0.495 µM: [18]
1.79 µM: [6]
2.32 µM: [38]
not listed: [45] | [46] | [47]
> 4 µM: all other assays above

CCCS(=O)(=O)Nc1ccc(F)c(C(=O)c2c[nH]c3ncc(Cl)cc23)c1F [PLX-4720]
0.887 µM: [32]
not listed: [47]
> 10 µM: all other assays above

C[C@]1(c2nc3c(C(N)=O)cccc3[nH]2)CCCN1 [VELIPARIB]
not listed: [36]
> 5 µM: all other assays above
